# Results published in PubChem BioAssay (NCI).
#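 Five compound concentrations were applied to cells in 96-well plates for 48 hours; endpoints were derived by simple linear interpolation of the resulting dose-response curve. GI50 is the concentration that inhibits growth by half. TGI marks complete inhibition of growth.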
# How the values were obtained:
# Test in all cases: NCI tumour cell line growth inhibition, 48 h
# EKVX NSCLC = system: EKVX NSCLC
# LOX IMVI melanoma = system: LOX IMVI melanoma
# MCF7 breast = system: MCF7 breast
# MOLT-4 leukemia = system: MOLT-4 leukemia
# OVCAR-4 ovarian = system: OVCAR-4 ovarian
# RXF 393 renal = system: RXF 393 renal
# SF-268 CNS = system: SF-268 CNS
# SK-MEL-2 melanoma = system: SK-MEL-2 melanoma
# SK-OV-3 ovarian = system: SK-OV-3 ovarian
# SNB-19 CNS = system: SNB-19 CNS
# U251 CNS = system: U251 CNS
# UACC-257 melanoma = system: UACC-257 melanoma
smiles,measurement,setting,value
Nc1ccc(N=Nc2ccc(/C=C/c3ccc(N=Nc4ccc(N)c5ccc(S(=O)(=O)O)cc45)cc3S(=O)(=O)O)c(S(=O)(=O)O)c2)c2cc(S(=O)(=O)O)ccc12,TGI,EKVX NSCLC,> 100 µM
same,TGI,LOX IMVI melanoma,> 100 µM
same,TGI,MCF7 breast,> 100 µM
same,TGI,MOLT-4 leukemia,> 100 µM
same,TGI,OVCAR-4 ovarian,> 100 µM
same,TGI,RXF 393 renal,> 100 µM
same,TGI,SF-268 CNS,> 100 µM
same,TGI,SK-MEL-2 melanoma,> 100 µM
same,TGI,SK-OV-3 ovarian,> 100 µM
same,TGI,SNB-19 CNS,> 100 µM
same,TGI,U251 CNS,> 100 µM
same,TGI,UACC-257 melanoma,> 100 µM
O=c1c2cc(I)ccc2nc(-c2cccs2)n1Nc1ccccc1,TGI,EKVX NSCLC,58.4 µM
same,TGI,LOX IMVI melanoma,> 100 µM
same,GI50,MCF7 breast,1.99 µM
same,TGI,MCF7 breast,> 100 µM
same,TGI,MOLT-4 leukemia,> 100 µM
same,TGI,OVCAR-4 ovarian,> 100 µM
same,TGI,RXF 393 renal,> 100 µM
same,TGI,SF-268 CNS,> 100 µM
same,TGI,SK-MEL-2 melanoma,1.63 µM
same,TGI,SK-OV-3 ovarian,74.4 µM
same,TGI,SNB-19 CNS,76.6 µM
same,TGI,U251 CNS,> 100 µM
same,GI50,UACC-257 melanoma,32.3 µM
same,TGI,UACC-257 melanoma,> 100 µM
CC1CN=C(NCc2ccccc2)S1 (stereo not drawn),TGI,EKVX NSCLC,> 100 µM
same,TGI,LOX IMVI melanoma,> 100 µM
same,TGI,MCF7 breast,> 100 µM
same,TGI,MOLT-4 leukemia,> 100 µM
same,TGI,RXF 393 renal,> 100 µM
same,TGI,SF-268 CNS,> 100 µM
same,TGI,SK-MEL-2 melanoma,> 100 µM
same,TGI,SK-OV-3 ovarian,> 100 µM
same,TGI,SNB-19 CNS,> 100 µM
same,TGI,U251 CNS,> 100 µM
same,TGI,UACC-257 melanoma,> 100 µM
COc1cc(/C=C2\CCCC3=C2NC(N)=NC3c2cc(OC)c(OC)c(OC)c2)cc(OC)c1OC (stereo not drawn),GI50,EKVX NSCLC,3.12 µM
same,TGI,EKVX NSCLC,> 100 µM
same,GI50,MCF7 breast,1.49 µM
same,TGI,MCF7 breast,> 100 µM
same,GI50,MOLT-4 leukemia,1.69 µM
same,TGI,MOLT-4 leukemia,5.83 µM
same,GI50,OVCAR-4 ovarian,1.7 µM
same,TGI,OVCAR-4 ovarian,> 100 µM
same,GI50,SF-268 CNS,2.42 µM
same,TGI,SF-268 CNS,> 100 µM
same,GI50,SK-MEL-2 melanoma,2.08 µM
same,TGI,SK-MEL-2 melanoma,4.83 µM
same,GI50,SK-OV-3 ovarian,3.43 µM
same,TGI,SK-OV-3 ovarian,> 100 µM
same,GI50,UACC-257 melanoma,1.25 µM
same,TGI,UACC-257 melanoma,4.35 µM
